These results are taken from PMC8398393, “Synthesis and Biological Evaluation of Amidinourea Derivatives against Herpes Simplex Viruses” (Molecules, 2021).

Data set [1] is described as follows: Cytotoxicity assay (MTT) in Vero cells. The note with it: African green monkey, Vero cells (African green monkey kidney cells), compound concentration that produces 50% of cytotoxicity. Type of data set: cell-based. Here is the method:
We then investigated whether the new amidinourea derivatives 5a–k could affect HSV-1 and HSV-2 replication. We first assessed cell cytotoxicity of the compounds in African green monkey kidney cells (Vero) to rule out the possibility that antiviral activity was related to the cytotoxic effects of the drug (Table 1). Vero cells were seeded at a density of 3 × 10^4/well in a 96-well culture plate. After 24 h, the cells were treated with different dilutions of drugs, or mock-treated using the same amount of vehicle solution (DMSO). Forty-eight hours after treatment, cell viability was determined using a standard 3-(4,5-dimethylthiazol-2-yl)-2,5-diphenyltetrazolium bromide (MTT) assay. The compounds were considered non-toxic only if they maintained at least 70% cell viability after 48 h of treatment.
To determine the cytotoxicity of amidinourea derivatives, Vero cells were seeded in a 96-well culture plate and exposed to increasing concentrations of either compounds or vehicle (DMSO) the following day. After 48 h of incubation, the number of viable cells was determined using the 3-(4,5-dimethylthiazol-2-yl)-2,5-diphenyltetrazolium bromide (MTT) (Sigma-Aldrich, Milan, Italy) assay, as previously described.
(§1) Data were presented as the mean value and standard error of the mean (SEM). Data were analyzed by means of GraphPad Prism 5 software (GraphPad Software, Inc., La Jolla, CA, USA). Statistical analysis was performed using one-way ANOVA with Bonferroni’s post-test; p < 0.05 was considered statistically significant. The IC50 e CC50 values were calculated using the online tool Quest Graph™ IC50 Calculator, AAT Bioquest, Inc., Sunnyvale, CA, USA, https://www.aatbio.com/tools/ic50-calculator (accessed on 4 May 2021).

Data set [2] relates to HSV-1. Nature of the data set: Virus yield reduction assay (plaque titration) HSV-1. Type of data set: cell-based, Herpes simplex virus type 1 (clinical isolate) in Vero cells. Particulars: for antiviral activity against HSV-1 (in words): virus yield reduction, Vero cells, MOI 0.1, 48 h, 100 µM (50 µM for 5f and 5k); for IC50: Human alphaherpesvirus 1, HSV-1, Vero cells, MOI 0.1, 2 h pre-treatment, 48 h, plaque assay, read-out: IC50 values (compound concentration required to inhibit 50% of viral infectivity). Here is the method: (§2) Vero cells were seeded at a density of 3 × 10^5/well in a 24-well culture plate. Twenty-four hours later, the cells were pre-treated with the different drugs for 2 h at 37 °C, and then infected in duplicate with HSV-1 or HSV-2 at an MOI of 0.1, in the presence of the compounds; following virus adsorption, the viral inoculum was removed and cultures were exposed to the compounds for 48 h. The extent of HSV-1 and HSV-2 replication was then assessed by titrating the infectivity of supernatants and cell-associated viruses using a standard plaque assay in Vero cells. Plaques were microscopically counted, and the mean plaque counts for each drug concentration were expressed as plaque-forming units per milliliter (PFU/mL) (Figure 3).
(§3) The African green monkey kidney cells (Vero, ATCC CCL-81™) were cultured in Dulbecco’s Modified Eagle’s Medium, supplemented with 10% heat inactivated fetal bovine serum (FBS), 2 mM glutamine, 1 mM sodium pyruvate, 100 U/mL penicillin and 100 µg/mL streptomycin sulfate (Sigma-Aldrich, Milan, Italy). Clinical isolates of HSV-1 and HSV-2 were a generous gift from Valeria Ghisetti, Amedeo di Savoia Hospital, Turin, Italy. They were propagated and titrated by plaque assay on Vero cells, as previously described.
(§4) Vero cells were seeded in 24-well plates and pre-treated, after 24 h, with different concentrations of the amidinourea derivatives or the vehicle control (DMSO) for 2 h at 37 °C. They were then infected with HSV at MOI of 0.1 PFU/cell in the presence of the compounds. Following virus adsorption (2 h at 37 °C), the viral inoculum was removed, and the cultures were maintained in a medium that contained the corresponding molecule for 48 h. The cells and supernatants were then harvested and disrupted using three freeze (liquid nitrogen)/thaw (37 °C) cycles. The extent of virus replication was subsequently assessed by titrating the infectivity of the supernatants of the cell suspensions in Vero cells, as previously described. Plaques were microscopically counted, and the mean plaque counts for each drug concentration were expressed as PFU/mL.
as §1
Figure 3 Antiviral activity of 5a–k against HSV-1 and HSV-2. Upper panel. Virus yield reduction assay. Vero cells were treated as described in the manuscript with the indicated compounds. The extent of (A) HSV-1 and (B) HSV-2 replication was then assessed by titrating the infectivity of supernatants and cell-associated viruses using a standard plaque assay in Vero cells. Plaques were microscopically counted, and the mean plaque counts for each molecule were expressed as PFU/mL. Mean ± SEM is shown (***, p < 0.001, one-way ANOVA followed by Bonferroni’s post-tests). Lower panel. Representative light microscopy images of Vero cells infected with (A) HSV-1 or (B) HSV-2 and treated with the indicated compounds, as described for virus yield reduction assay. Original magnification: 20×.
Figure 4 (A) Vero cells were infected with HSV-1 and, where indicated, the cells were treated with increasing concentrations of the indicated compounds, before and during virus adsorption. These remained in the culture media throughout the experiment. The extent of HSV-1 replication was then assessed by titrating the infectivity of supernatants and cell-associated viruses—obtained from freeze (liquid nitrogen)/thaw (37 °C) cycles—and combined using a standard plaque assay. […]

Data set [3] has as its system ICP27 and gD (HSV-1). Kind of data set: Western blot of viral gene expression in HSV-1-infected Vero cells. Type of data set: cell-based, HSV-1 in Vero cells. The note with it: MOI 0.3, various times post infection, immunoblotting. As to the method:
(§5) Finally, to identify the phase of HSV replication program that is affected by amidinourea derivatives, the effects of 5i compound on viral gene expression was investigated in HSV-1 and HSV-2-infected cells. To this end, the total protein cell extracts were prepared from HSV-infected Vero cells treated with 5i, or vehicle control, for various lengths of time post infection. The expression patterns of ICP27, for HSV-1, ICP8, for HSV-2, gD, for HSV-1 and HSV-2, were then examined via immunoblotting with specific antibodies and were used as a reflection of the levels of immediate-early/early (ICP27, ICP8) and late (gD) viral products, respectively. […] However, the precise mechanism exploited by amidinourea derivatives to carry out their antiviral activity against HSV still deserves to be elucidated and is beyond the goals of the present communication.
(§6) After treatment, the cells were washed with phosphate-buffered saline (PBS), and cell lysis was carried out using radioimmunoprecipitation assay (RIPA) buffer to obtain total cell lysate. […]
(§7) Figure 5 Vero cells were mock infected or infected with HSV-1 (A) or HSV-2 (B) at an MOI of 0.3. Protein levels of ICP27 (HSV-1), ICP8 (HSV-2) and gD (HSV-1/2) were assessed at different times post infection (hpi) by Western blotting (upper panels). […]
Background: Immunoblotting shows a protein as a band on a membrane.

Data set [4] deals with ICP8 and gD (HSV-2). Nature of the data set: Western blot of viral gene expression in HSV-2-infected Vero cells. Type of data set: cell-based, HSV-2 in Vero cells. The note with it: MOI 0.3, various times post infection, immunoblotting. As to the method: as §5, §6, §7
Data set [5] relates to HSV-2. Kind of data set: Virus yield reduction assay (plaque titration) HSV-2. Type of data set: cell-based, Herpes simplex virus type 2 (clinical isolate) in Vero cells. Particulars: Vero cells, MOI 0.1, 48 h, 100 µM (50 µM for 5f and 5k). As to the method: as §2, §3, §4
Figure 3 Antiviral activity of 5a–k against HSV-1 and HSV-2. Upper panel. Virus yield reduction assay. Vero cells were treated as described in the manuscript with the indicated compounds. The extent of (A) HSV-1 and (B) HSV-2 replication was then assessed by titrating the infectivity of supernatants and cell-associated viruses using a standard plaque assay in Vero cells. Plaques were microscopically counted, and the mean plaque counts for each molecule were expressed as PFU/mL. Mean ± SEM is shown (***, p < 0.001, one-way ANOVA followed by Bonferroni’s post-tests). Lower panel. […]

Consider `N=C(NC(=O)NCc1ccc(Cl)cc1)Nc1ccc(Cl)cc1` [Compound 5a], for which the CC50 (commonly the concentration giving 50% cytotoxicity) at 48 h in data set [1] stood at 168 µM.
On to `CC(NC(=O)NC(=N)Nc1ccc(Cl)cc1)c1ccccc1` (stereo not drawn) [Compound 5b], for which, in data set [1], the CC50 at 48 h is 196 µM.
`Cc1ccc(CNC(=O)NC(=N)Nc2ccc(Cl)cc2)cc1` [Compound 5c]: in data set [1], the CC50 at 48 h was 184 µM.
Turning to `N=C(NC(=O)N1CCOCC1)Nc1ccc(Cl)cc1` [Compound 5d], in data set [2], the “antiviral activity against HSV-1 (in words)” value is recorded as “more pronounced against HSV-1”. In addition, half-maximal cytotoxicity in data set [1] (CC50 at 48 h) was put at 1560 µM.
In the case of `N=C(NC(=O)NCCNc1ccccc1)Nc1ccc(Cl)cc1` [Compound 5e], the midpoint of cytotoxicity in data set [1], the CC50 at 48 h, lay at 142 µM.
Regarding `N=C(NC(=O)N1CCNC(c2ccccc2)C1)Nc1ccc(Cl)cc1` (stereo not drawn) [Compound 5f], the CC50 at 48 h in data set [1] was found to be 98.6 µM.
For the molecule `N=C(NCc1ccccc1)NC(=O)N1CCN(c2ccccc2)CC1` [Compound 5g], the midpoint of cytotoxicity in data set [1], the CC50 at 48 h, lay at 246 µM.
In data set [1], `N=C(NCc1ccccc1)NC(=O)N1CCN(c2ccc(F)cc2)CC1` [Compound 5h] yielded a CC50 at 48 h of 389 µM.
Turning to `N=C(NC(=O)N1CCN(c2ccccc2)CC1)Nc1ccc(Cl)cc1` [Compound 5i], the “antiviral activity against HSV-1 (in words)” value in data set [2] is given as “very strong activity”. The molecule further came in with a half-maximal cytotoxic concentration (CC50) at 48 h in data set [1] of 149 µM. Further, in data set [3], the “expression of viral proteins ICP27 and gD (HSV-1)” value is reported as “overall decrease of viral proteins”. Besides, in data set [4], the “expression of viral proteins ICP8 and gD (HSV-2)” value was “overall decrease of viral proteins”. In addition, the “antiviral activity against HSV-2 (in words)” value in data set [5] is “very strong activity”.
Regarding `N=C(NCc1ccccc1)NC(=O)N1CCN(c2ccc(Cl)cc2)CC1` [Compound 5j], in data set [2], the IC50 was 72.1 µM and the “antiviral activity against HSV-1 (in words)” value was “very strong activity”. Besides, in data set [1], the CC50 at 48 h is 177 µM. Besides, the “antiviral activity against HSV-2 (in words)” value in data set [5] was “very strong activity”.
As for `N=C(NC(=O)N1CCN(C23CC4CC(CC(C4)C2)C3)CC1)Nc1ccc(Cl)cc1` [Compound 5k], in data set [2], the IC50 came out at 18.5 µM and the “antiviral activity against HSV-1 (in words)” value is “very strong activity”. The molecule also gave a CC50 at 48 h in data set [1] of 86.7 µM. Moreover, the “antiviral activity against HSV-2 (in words)” value in data set [5] is “very strong activity”.
In the case of `N=C(N)/N=C(\N)N1CCOCC1` [moroxydine, reference compound], the “antiviral activity against HSV-1 (in words)” value in data set [2] is on record as “does not show any antiviral activity”. Also, the “antiviral activity against HSV-2 (in words)” value in data set [5] is “does not show any antiviral activity”.
